Measured values reported in PubChem BioAssay (NCI).
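Dose response: 5 concentrations. Exposure: 48 h. Format: 96-well plates. Endpoint: linear interpolation; highest concentration if not reached. TGI denotes the concentration required for complete inhibition of growth.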

Assays:
Experiment in all cases: DTP human tumour cell line panel, 48 h
[1] = tested on: UACC-257 melanoma
[2] = tested on: SK-OV-3 ovarian
[3] = tested on: SN12C renal
[4] = tested on: SF-539 CNS
[5] = tested on: MDA-N
[6] = tested on: SNB-19 CNS
[7] = tested on: SNB-75 CNS
[8] = tested on: HCC-2998 colon
[9] = tested on: LOX IMVI melanoma
[10] = tested on: RXF 393 renal
[11] = tested on: NCI-H226 lung

SMILES	TGI [1] [µM]	TGI [2] [µM]	TGI [3] [µM]	TGI [4] [µM]	TGI [5] [µM]	TGI [6] [µM]	TGI [7] [µM]	TGI [8] [µM]	TGI [9] [µM]	TGI [10] [µM]	TGI [11] [µM]
O=C(C(=C(I)I)c1ccccc1)c1ccccc1	> 100	> 100	> 100	52.6	62.1	> 100					
O=C1c2cc3c(cc2CC12Cc1ccc4c(c1C2=O)CCC4)CCC3 (stereo unspecified)	> 100	> 100		> 100	> 100	> 100	> 100	> 100	> 100	> 100	
CC[C@H](NC(=O)OC(C)(C)C)C(=O)NCP(=O)(OCc1ccc([N+](=O)[O-])cc1)OCc1ccc([N+](=O)[O-])cc1	26.9	86	> 100	90	86.1	> 100	> 100	> 100	> 100		> 100
CSc1nc(=O)c2nc(-c3cccs3)c(-c3cccs3)nc2n1C	> 100	> 100	> 100		> 100	> 100	49.6	> 100	> 100	59.6	
CCOC(=O)N1CCN(c2c(N)nc(C)[nH]c2=O)CC1	> 100		> 100	> 100	> 100	> 100	> 100	> 100	> 100		> 100
CC[C@]12C=CCN3CCC4(c5cc([C@@]6(C(=O)OC)CC7CN(CCc8c6[nH]c6ccccc86)CC6CCCCC67)c(OC)cc5N(C)C4[C@](O)(C(=O)OC)C1OC(C)=O)[C@@H]32 (stereo partly specified)	18.8		17.5	< 0.01		15.4		< 0.01	6.46	16.9	2.42
CNC(=S)N1CCN(C(C)=O)C1=S	> 100	> 100	> 100	52.8	> 100		72.9	> 100	> 100		62
C=C(C)[C@H]1CC23C(=O)[C@@](C)(C[C@H]2C1(C)C)C(=O)C(C(=O)C(C)C)=C3O	62.3		32.9		35.7	69.7			38.9	29	30.3
CCC1([N+](=O)[O-])CN(N=O)C1	> 100	> 100	> 100	> 100	> 100	> 100	> 100		> 100	> 100	> 100
Cc1cc(S(=O)(=O)N=C2Nc3cccc4cccc(c34)N2)c(S)cc1Cl	> 100			> 100	> 100	> 100	> 100	> 100	> 100	> 100	> 100
CC(C)=C/C(CC(O)(C(F)(F)F)C(F)(F)F)=N\O	> 100	> 100	> 100	> 100		> 100	> 100	> 100	> 100	> 100	> 100
